Values of other authors as cited in publication PMC6525002 (Cancer Management and Research, 2019).

Assays:
patients with NSCLC = conditions: clinical trials; cited from earlier work
[1] = system: NSCLC patients with EGFR mutations; conditions: cited from earlier work
[2] = cited from earlier work

Compound | frequency of diarrhea (patients with NSCLC) | response rates on brain metastases [1] | time to Cmax ([2]; cancer patients, post-dose) | inter-patient variability of exposure ([2]; post single-dose exposure)
CN(C)C/C=C/C(=O)Nc1cc2c(Nc3ccc(F)c(Cl)c3)ncnc2cc1O[C@H]1CCOC1 [afitinib] | 87.0% |  |  | 
C#Cc1cccc(Nc2ncnc3cc(OCCOC)c(OCCOC)cc23)c1 [erlotinib] | 40.0–67.9% | 60–80% |  | 
COc1cc2ncnc(Nc3ccc(F)c(Cl)c3)c2cc1OCCCN1CCOCC1 [gefitinib] |  |  | 3 h | 1.5 fold
